Test results as given in the NIST ThermoML archive (doi:10.1016/j.jct.2016.03.026).

Assay: xn = mol fraction of the nth substance listed
Details: 263.15 K, Fluid (supercritical or subcritical phases), Vibrating tube method, x1 = 0.97

O=C=O [carbon dioxide] + CO
Details	mass density [kg/m3]
7525 kPa	1006.96
7550 kPa	1007.04
7575 kPa	1007.2
7600 kPa	1007.28
7625 kPa	1007.38
7650 kPa	1007.53
7675 kPa	1007.61
7700 kPa	1007.76
7725 kPa	1007.86
7750 kPa	1007.94
7775 kPa	1008.1
7800 kPa	1008.18
7825 kPa	1008.35
7850 kPa	1008.43
7875 kPa	1008.51
7900 kPa	1008.68
7925 kPa	1008.76
7950 kPa	1008.84
7975 kPa	1009
8000 kPa	1009.08
8025 kPa	1009.16
8050 kPa	1009.33
8075 kPa	1009.41
8100 kPa	1009.54
8125 kPa	1009.66
8150 kPa	1009.74
8175 kPa	1009.86
8200 kPa	1009.98
8225 kPa	1010.06
8250 kPa	1010.23
8275 kPa	1010.31
8300 kPa	1010.39
8325 kPa	1010.56
8350 kPa	1010.64
8375 kPa	1010.74
8400 kPa	1010.88
8425 kPa	1010.96
8450 kPa	1011.04
8475 kPa	1011.21
8500 kPa	1011.29
8525 kPa	1011.44
8550 kPa	1011.54
8575 kPa	1011.62
8600 kPa	1011.73
8625 kPa	1011.86
8650 kPa	1011.94
8675 kPa	1012.05
8700 kPa	1012.19
8725 kPa	1012.27
8750 kPa	1012.41
8775 kPa	1012.52
8800 kPa	1012.6
8825 kPa	1012.76
8850 kPa	1012.85
8875 kPa	1012.93
8900 kPa	1013.03
8925 kPa	1013.17
8950 kPa	1013.25
8975 kPa	1013.35
9000 kPa	1013.49
9025 kPa	1013.58
9050 kPa	1013.66
9075 kPa	1013.83
9100 kPa	1013.91
9125 kPa	1013.99
9150 kPa	1014.08
9175 kPa	1014.23
9200 kPa	1014.31
9225 kPa	1014.39
9250 kPa	1014.56
9275 kPa	1014.64
9300 kPa	1014.72
9325 kPa	1014.89
9350 kPa	1014.97
9375 kPa	1015.05
9400 kPa	1015.13
9425 kPa	1015.3
9450 kPa	1015.38
9475 kPa	1015.46
9500 kPa	1015.54
9525 kPa	1015.7
9550 kPa	1015.78
9575 kPa	1015.87
9600 kPa	1016.03
9625 kPa	1016.11
9650 kPa	1016.19
9675 kPa	1016.28
9700 kPa	1016.44
9725 kPa	1016.52
9750 kPa	1016.6
9775 kPa	1016.77
9800 kPa	1016.85
9825 kPa	1016.93
9850 kPa	1017.01
9875 kPa	1017.17
9900 kPa	1017.25
9925 kPa	1017.34
9950 kPa	1017.47
9975 kPa	1017.58
10000 kPa	1017.66
10025 kPa	1017.74
10050 kPa	1017.83
10075 kPa	1017.99
10100 kPa	1018.07
10125 kPa	1018.15
10150 kPa	1018.23
10175 kPa	1018.34
10200 kPa	1018.48
10225 kPa	1018.56
10250 kPa	1018.68
10275 kPa	1018.81
10300 kPa	1018.89
10325 kPa	1018.97
10350 kPa	1019.09
10375 kPa	1019.21
10400 kPa	1019.3
10425 kPa	1019.38
10450 kPa	1019.46
10475 kPa	1019.62
10500 kPa	1019.7
10525 kPa	1019.78
10550 kPa	1019.87
10575 kPa	1020.02
10600 kPa	1020.11
10625 kPa	1020.19
10650 kPa	1020.27
10675 kPa	1020.44
10700 kPa	1020.52
10725 kPa	1020.6
10750 kPa	1020.68
10775 kPa	1020.76
10800 kPa	1020.93
10825 kPa	1021.01
10850 kPa	1021.09
10875 kPa	1021.17
10900 kPa	1021.25
10925 kPa	1021.42
10950 kPa	1021.5
10975 kPa	1021.58
11000 kPa	1021.66
11025 kPa	1021.83
11050 kPa	1021.91
11075 kPa	1021.99
11100 kPa	1022.07
11125 kPa	1022.15
11150 kPa	1022.29
11175 kPa	1022.4
11200 kPa	1022.48
11225 kPa	1022.56
11250 kPa	1022.64
11275 kPa	1022.8
11300 kPa	1022.89
11325 kPa	1022.97
11350 kPa	1023.05
11375 kPa	1023.13
11400 kPa	1023.29
11425 kPa	1023.38
11450 kPa	1023.46
11475 kPa	1023.54
11500 kPa	1023.62
11525 kPa	1023.75
11550 kPa	1023.86
11575 kPa	1023.95
11600 kPa	1024.03
11625 kPa	1024.11
11650 kPa	1024.21
11675 kPa	1024.35
11700 kPa	1024.44
11725 kPa	1024.52
11750 kPa	1024.6
11775 kPa	1024.74
11800 kPa	1024.84
11825 kPa	1024.93
11850 kPa	1025.01
11875 kPa	1025.09
11900 kPa	1025.19
11925 kPa	1025.29
11950 kPa	1025.41
11975 kPa	1025.5
12000 kPa	1025.58
12025 kPa	1025.66
12050 kPa	1025.75
12075 kPa	1025.9
12100 kPa	1025.98
12125 kPa	1026.07
12150 kPa	1026.15
12175 kPa	1026.31
12200 kPa	1026.39
12225 kPa	1026.47
12250 kPa	1026.56
12275 kPa	1026.64
12300 kPa	1026.72
12325 kPa	1026.88
12350 kPa	1026.96
12375 kPa	1027.05
12400 kPa	1027.13
12425 kPa	1027.21
12450 kPa	1027.29
12475 kPa	1027.38
12500 kPa	1027.53
12525 kPa	1027.62
12550 kPa	1027.7
12575 kPa	1027.78
12600 kPa	1027.86
12625 kPa	1027.96
12650 kPa	1028.09
12675 kPa	1028.19
12700 kPa	1028.27
12725 kPa	1028.35
12750 kPa	1028.43
12775 kPa	1028.51
12800 kPa	1028.6
12825 kPa	1028.76
12850 kPa	1028.84
12875 kPa	1028.92
12900 kPa	1029
12925 kPa	1029.08
12950 kPa	1029.2
12975 kPa	1029.3
13000 kPa	1029.41
13025 kPa	1029.49
13050 kPa	1029.57
13075 kPa	1029.65
13100 kPa	1029.73
13125 kPa	1029.88
13150 kPa	1029.94
13175 kPa	1030.06
13200 kPa	1030.14
13225 kPa	1030.22
13250 kPa	1030.31
13275 kPa	1030.39
13300 kPa	1030.53
13325 kPa	1030.63
13350 kPa	1030.71
13375 kPa	1030.8
13400 kPa	1030.88
13425 kPa	1030.96
13450 kPa	1031.04
13475 kPa	1031.14
13500 kPa	1031.29
13525 kPa	1031.37
13550 kPa	1031.45
13575 kPa	1031.53
13600 kPa	1031.61
